Reference: patent US20240132484A1, “BROAD SPECTRUM ANTIVIRAL COMPOUNDS TARGETING THE SKI COMPLEX” (priority 2020, published 2024)
Several values for one entry are separate records, joined by “and”; a condition that tells them apart may be missing. Equal values may be shown once. Read-outs that look alike come from different tables or passages of the source.

Tests used:
SARS2 = type: cell-based, SARS-CoV-2; conditions: for Infection Data, Average, Mean percentage infection relative to DMSO control: Average of Exp 1 (SMW491) and Exp 2 (SMW492); for Infection Data, Percentage Infection Relative to Appropriate DMSO Control: single well, avg background subtraction
cells (nuclei count) = conditions: for Toxicity Data, Average, Mean percentage relative to DMSO control: Average of Exp 1 (SMW491) and Exp 2 (SMW492); for Toxicity Data, Percentage Relative to Appropriate DMSO Control: single well

`COc1ccc(CNCCc2ccccc2F)c(OCC(O)CN2CCN(C)CC2)c1` (stereo not drawn) [SILCS46] was tested, and the “SARS2 antiviral activity” value (SARS2) was “lower activity”, the “Infection Data, Average, Mean percentage infection relative to DMSO control” value (SARS2; n=4, 1 uM) was 72.12% and the “Infection Data, Average, Mean percentage infection relative to DMSO control” value (SARS2; n=4, 5 uM) was 0.77%. The “Infection Data, Average, Mean percentage infection relative to DMSO control” value (SARS2; n=4, 10 uM) was 21.64%, the “Infection Data, Average, Mean percentage infection relative to DMSO control” value (SARS2; n=4, 25 uM) was 0.03% and the “Infection Data, Average, Mean percentage infection relative to DMSO control” value (SARS2; n=4, 50 uM) was 0.84%. For the same compound, the “Infection Data, Percentage Infection Relative to Appropriate DMSO Control” value (SARS2; Exp 1 (SMW491), 1 uM) was 73.61% and 132.86%, the “Infection Data, Percentage Infection Relative to Appropriate DMSO Control” value (SARS2; Exp 1 (SMW491), 5 uM) was −0.70% and 0.86% and the “Infection Data, Percentage Infection Relative to Appropriate DMSO Control” value (SARS2; Exp 1 (SMW491), 10 uM) was −2.65% and −0.77%. The “Infection Data, Percentage Infection Relative to Appropriate DMSO Control” value (SARS2; Exp 1 (SMW491), 25 uM) was −3.35% and 0.11%, the “Infection Data, Percentage Infection Relative to Appropriate DMSO Control” value (SARS2; Exp 1 (SMW491), 50 uM) was 2.55% and −4.15% and the “Infection Data, Percentage Infection Relative to Appropriate DMSO Control” value (SARS2; Exp 2 (SMW492), 1 uM) was 49.01% and 32.97%. For the same compound, the “Infection Data, Percentage Infection Relative to Appropriate DMSO Control” value (SARS2; Exp 2 (SMW492), 5 uM) was 0.99% and 1.92%, the “Infection Data, Percentage Infection Relative to Appropriate DMSO Control” value (SARS2; Exp 2 (SMW492), 10 uM) was 47.59% and 42.39% and the “Infection Data, Percentage Infection Relative to Appropriate DMSO Control” value (SARS2; Exp 2 (SMW492), 25 uM) was 0.98% and 2.39%. For the same compound, the “Infection Data, Percentage Infection Relative to Appropriate DMSO Control” value (SARS2; Exp 2 (SMW492), 50 uM) was 3.90% and 1.08%, the “Percentage Inhibition Average 1 μM” value (SARS2; SARS2, 1 μM) was 27.88% and the “Screening data (Relative infection to DMSO controls) Average 1 μM” value (SARS2; SARS2, 1 μM, 100=DMSO control) was 72.12. For the same compound, the “Percentage Inhibition Average 5 μM” value (SARS2; SARS2, 5 μM) was 99.23%, the “Screening data (Relative infection to DMSO controls) Average 5 μM” value (SARS2; SARS2, 5 μM, 100=DMSO control) was 0.77 and the “Percentage Inhibition Average 10 μM” value (SARS2; SARS2, 10 μM) was 78.36%. For the same compound, the “Screening data (Relative infection to DMSO controls) Average 10 μM” value (SARS2; SARS2, 10 μM, 100=DMSO control) was 21.64, the “Percentage Inhibition Average 25 μM” value (SARS2; SARS2, 25 μM) was 99.97% and the “Screening data (Relative infection to DMSO controls) Average 25 μM” value (SARS2; SARS2, 25 μM, 100=DMSO control) was 0.03. The “Percentage Inhibition Average 50 μM” value (SARS2; SARS2, 50 μM) was 99.16%, the “Screening data (Relative infection to DMSO controls) Average 50 μM” value (SARS2; SARS2, 50 μM, 100=DMSO control) was 0.84 and the “Average (relative infection to DMSO over the 5 tested concentrations)” value (SARS2; SARS2, average over 1 to 50 uM, 100=DMSO control) was 19.08. The “Relative cell count to DMSO controls, Average 1 μM” value (cells (nuclei count); 1 μM, toxicity data, 100=DMSO control) was 103.33, the “Relative cell count to DMSO controls, Average 5 μM” value (cells (nuclei count); 5 μM, toxicity data, 100=DMSO control) was 131.17 and the “Relative cell count to DMSO controls, Average 10 μM” value (cells (nuclei count); 10 μM, toxicity data, 100=DMSO control) was 126.44. The “Relative cell count to DMSO controls, Average 25 μM” value (cells (nuclei count); 25 μM, toxicity data, 100=DMSO control) was 117.77, the “Relative cell count to DMSO controls, Average 50 μM” value (cells (nuclei count); 50 μM, toxicity data, 100=DMSO control) was 107.72 and the “Toxicity Data, Average, Mean percentage relative to DMSO control” value (cells (nuclei count); n=4, 1 uM) was 103.33%. For the same compound, the “Toxicity Data, Average, Mean percentage relative to DMSO control” value (cells (nuclei count); n=4, 5 uM) was 131.17%, the “Toxicity Data, Average, Mean percentage relative to DMSO control” value (cells (nuclei count); n=4, 10 uM) was 126.44% and the “Toxicity Data, Average, Mean percentage relative to DMSO control” value (cells (nuclei count); n=4, 25 uM) was 117.77%. The “Toxicity Data, Average, Mean percentage relative to DMSO control” value (cells (nuclei count); n=4, 50 uM) was 107.72%, the “Toxicity Data, Percentage Relative to Appropriate DMSO Control” value (cells (nuclei count); Exp 1 (SMW491), 1 uM) was 87% and 86% and the “Toxicity Data, Percentage Relative to Appropriate DMSO Control” value (cells (nuclei count); Exp 1 (SMW491), 5 uM) was 124% and 137%. The “Toxicity Data, Percentage Relative to Appropriate DMSO Control” value (cells (nuclei count); Exp 1 (SMW491), 10 uM) was 126% and 116%, the “Toxicity Data, Percentage Relative to Appropriate DMSO Control” value (cells (nuclei count); Exp 1 (SMW491), 25 uM) was 118% and 101% and the “Toxicity Data, Percentage Relative to Appropriate DMSO Control” value (cells (nuclei count); Exp 1 (SMW491), 50 uM) was 84% and 108%. The “Toxicity Data, Percentage Relative to Appropriate DMSO Control” value (cells (nuclei count); Exp 2 (SMW492), 1 uM) was 100% and 140%, the “Toxicity Data, Percentage Relative to Appropriate DMSO Control” value (cells (nuclei count); Exp 2 (SMW492), 5 uM) was 120% and 143% and the “Toxicity Data, Percentage Relative to Appropriate DMSO Control” value (cells (nuclei count); Exp 2 (SMW492), 10 uM) was 134% and 130%. For the same compound, the “Toxicity Data, Percentage Relative to Appropriate DMSO Control” value (cells (nuclei count); Exp 2 (SMW492), 25 uM) was 117% and 135%, the “Toxicity Data, Percentage Relative to Appropriate DMSO Control” value (cells (nuclei count); Exp 2 (SMW492), 50 uM) was 118% and 121% and the “Relative cell count to DMSO controls, Average (for correlation analysis)” value (cells (nuclei count); average value over the 5 tested concentrations (1 to 50 uM)) was 117.29.
